How the values were obtained:
[1] = target: GABA-A receptor; anion channel; experiment: (§1) Binding affinity for Diazepam-Sensitive fraction of GABA-A benzodiazepine receptors; assay type: protein-complex assay
[2] = target: GABA-A receptor; anion channel; experiment: Binding affinity for Diazepam-Insensitive fraction of GABA-A benzodiazepine receptors; assay type: protein-complex assay, Rattus norvegicus
[3] = target: T1, GABA-A receptor; anion channel (Rattus norvegicus) (UniProt O09028+P15431+P18506+P18508+P19969+P20236+P23574+P23576+P28471+P28473+P30191+P62813+P63079+P63138+Q91ZM7+Q9ES14); experiment: Selectivity for Diazepam insensitive compared to sensitive GABA-A benzodiazepine receptor fractions; assay type: protein-complex assay
[4] = target: GABA-A receptor; anion channel; experiment: as §1; assay type: protein-complex assay, Rattus norvegicus
[5] = target: T1, GABA-A receptor; anion channel (Rattus norvegicus); experiment: GABA shift ratio at Diazepam sensitive fraction of GABA-A benzodiazepine receptor; assay type: protein-complex assay
[6] = target: GABA-A receptor; anion channel; experiment: Inhibition of Diazepam-Insensitive faction of GABA-A benzodiazepine receptors; assay type: protein-complex assay, Rattus norvegicus
[7] = target: GABA-A receptor; anion channel; experiment: Inhibition of Diazepam-Insensitive fraction of GABA-A benzodiazepine receptors; assay type: protein-complex assay, Rattus norvegicus

Row | Structure (SMILES) | Ki [1] | Ki [2] | Ratio [3] | Ki [4] | GABA shift [5] | IC50 [6] | IC50 [7]
1 | CCOC(=O)c1ncn2c1C1CCCN1C(=O)c1cc(Cl)ccc1-2 (stereo not drawn) [RO-145975] | 72 nM | 53 nM | 0.73 |  |  |  | 
2 | CCOC(=O)c1ncn2c1CN(C)C(=O)c1cc(Cl)ccc1-2 [Ro-151310] |  |  |  | 5.4 nM |  |  | 
3 | COC(=O)c1ncn2c1CN(C)C(=O)c1ccccc1-2 |  |  |  | 6.3 nM | 99 | > 1000 nM | 
4 | CN1Cc2c(C(=O)OC(C)(C)C)ncn2-c2ccc(Br)cc2C1=O |  | 2.8 nM | 0.17 | 16 nM | 1.06 |  | 
5 | CN1Cc2c(C(=O)OC(C)(C)C)ncn2-c2ccc([N+](=O)[O-])cc2C1=O |  | 10.8 nM | 0.77 | 14 nM | 1.46 |  | 
6 | CN1Cc2c(C(=O)OC(C)(C)C)ncn2-c2ccccc2C1=O | 1.1 nM | 21.2 nM | 19.2 |  | 105 |  | 
7 | CN1Cc2c(C(=O)OC(C)(C)C)ncn2-c2ccc(Cl)cc2C1=O | 4 nM | 1.7 nM | 0.4 |  | 116 |  | 
8 | CCOC(=O)c1ncn2c1CN(C)C(=O)c1ccccc1-2 [RO-147437] |  | 214 nM | 165 | 1.3 nM | 98 |  | 
9 | CN1Cc2c(C(=O)OC(C)(C)C)ncn2-c2ccc(N=C=S)cc2C1=O | 3.7 nM | 2.7 nM | 0.73 |  | 1.35 |  | 
10 | CN(C)N=Nc1ccc2c(c1)C(=O)N(C)Cc1c(C(=O)OC(C)(C)C)ncn1-2 |  |  |  | 3490 nM | 1.12 |  | > 1000 nM
11 | COC(=O)c1ncn2c1CN(C)C(=O)c1sccc1-2 | 0.9 nM | 52 nM | 57 |  |  |  | 
12 | CCC(CC)OC(=O)c1ncn2c1CN(C)C(=O)c1cc(Cl)ccc1-2 | 26.9 nM | 123 nM | 4.6 |  | 158 |  | 
13 | CN1Cc2c(C(=O)OCC3CC3)ncn2-c2ccc(Cl)cc2C1=O |  | 39.8 nM | 4.1 | 9.7 nM | 176 |  | 
14 | CN1Cc2c(C(=O)OC(C)(C)C)ncn2-c2ccc(I)cc2C1=O | 7 nM | 1.5 nM | 0.21 |  | 1.22 |  | 
15 | CC(C)OC(=O)c1ncn2c1CN(C)C(=O)c1cc(Cl)ccc1-2 | 10.5 nM | 8.8 nM | 0.8 |  | 123 |  | 
16 | CCCOC(=O)c1ncn2c1CN(C)C(=O)c1cc(Cl)ccc1-2 | 24.8 nM | 33.3 nM | 1.3 |  | 128 |  | 
17 | CCOC(=O)c1ncn2c1[C@@H]1CCCN1C(=O)c1ccccc1-2 | 0.9 nM | 45 nM | 50 |  |  |  | 
18 | CN1Cc2c(C(=O)OCCC(C)(C)C)ncn2-c2ccc(Cl)cc2C1=O | 184 nM |  |  |  | 201 |  | > 1000 nM
19 | CN1Cc2c(C(=O)OC(C)(C)C)ncn2-c2ccsc2C1=O [RO-194603] |  | 2.6 nM | 13 | 0.2 nM |  |  | 
20 | CCCOC(=O)c1ncn2c1CN(C)C(=O)c1sccc1-2 | 1.4 nM | 38 nM | 27 |  |  |  | 
21 | CN1Cc2c(C(=O)OCC(C)(C)C)ncn2-c2ccc(Cl)cc2C1=O |  | 300 nM | 0.67 | 499 nM | 177 |  | 
22 | CN1Cc2c(C(=O)OC(C)(C)C)ncn2-c2ccc(N=[N+]=[N-])cc2C1=O | 2.1 nM | 0.43 nM | 0.2 |  | 1.76 |  | 
23 | COC(=O)c1ncn2c1CN(C)C(=O)c1cc(Cl)ccc1-2 |  | 124 nM |  |  |  |  | 
